Laboratory results: patent US12642759B2, “Cosmetic composition for improving skin containing extracts of polygala tenuifolia, angelica dahurica and elsholtzia splendens” (SOOY-K CO., LTD., priority 2023, dated 2026)

Legend:
[1] = DPPH radical scavenging assay; format: biochemical; settings: concentration 50 μg/mL, positive control
Protocol: Antioxidant efficacy was measured by DPPH radical scavenging activity based on the Blois' method. This assay is one of the generation methods. DPPH is purple in the radical state, and when reduced by receiving electrons, it changes its color to yellow (DPPH-H). 100 μL of 0.2 mM DPPH solution and 80 μL of samples of each concentration were mixed in a 96-well plate, reacted for 30 minutes at room temperature in the dark, and then absorbance was measured at 517 nm to calculate radical scavenging activity according to Equation 1 below. Ascorbic acid, an antioxidant, was used as a positive control, and a DPPH solution which was not treated with a sample was used as a negative control. [formula] ABTS Radical Scavenging Assay

[2] = ABTS radical scavenging assay; format: biochemical; settings: concentration 50 μg/mL, positive control
Protocol: Antioxidant activity was measured using […] (ABTS) radical with reference to the Van den Berg method. This method uses the principle that ABTS+ radical, which has a blue-green color, is made to be transparent by antioxidants. 7 mM ABTS and 2.4 mM potassium persulfate were mixed and left at room temperature in the dark for 24 hours to form ABTS. Absorbance was measured at 734 nm, and the material was used for the experiment after adjusting the absorbance to 0.7±0.1. 100 μL of ABTS working solution and 100 μL of samples of each concentration were mixed and reacted in the dark for 10 minutes. Then, the absorbance was measured at […] and the radical scavenging activity was calculated as shown in Equation 2 below. Ascorbic acid, an antioxidant, was used as a positive control, and an ABTS solution which was not treated with a sample was used as a negative control. [formula] 1-5. Cell Culture

[3] = tested on: Staphylococcus aureus; experiment: Antibacterial activity, paper disc method; format: cell-based; settings: 4 mg/mL, positive control, 8 mm paper disc, read-out: Clear zone
Protocol: The antibacterial effect was measured against Staphylococcus aureus (S. aureus). The paper disc method was used to measure the antibacterial activity of the samples. Each strain cultured on a solid plate medium was taken by a platinum loop, then inoculated into a 4 mL liquid medium, and cultured for 20 hours to activate it. Then, 500 μL of the strain was inoculated into 3 mL of liquid medium and cultured for 4 hours. The strain was inoculated onto a solid plate medium so that the number of bacteria was 1×10^6-5×10^6/mL, and then spread evenly using a spreader. Each sample was prepared according to the concentrations, and 50 μL of the sample was absorbed into a paper disc (Toyo, Japan) with a diameter of 8 mm. The paper disc was placed on a solid plate medium inoculated with the strain and cultured at 37° C. for 20 hours. Then, the diameter of the clear zone around the disc was measured. Disc diffusion test is performed by placing a disc into which a sample was absorbed on an agar plate medium inoculated with bacteria and culturing them, and then measuring the diameter of the inhibition zone (clear zone) of the sample that diffused around the disc as much as it inhibited the growth of the bacteria.

Compound	DPPH radical scavenging activity (antioxidant activity) [1] [%]	ABTS radical scavenging activity (antioxidant activity) [2] [%]	zone of inhibition at 4000 µg/mL [3] [mm]
O=C1O[C@H]([C@@H](O)CO)C(O)=C1O [Ascorbic acid, ascorbic acid]	87.21±0.56	99.68±0.21	–
COC(=O)c1ccc(O)cc1 [Methyl paraben]	–	–	8.5
